# In EP3281632A1, “ARGON FOR USE IN THE PREVENTION OF BOTH CARDIAC AND CEREBRAL INJURY INDUCED BY ISCHEMIA/REPERFUSION FOLLOWING CARDIAC ARREST” (Societa'Italiana Acetilene & Derivati S.I.A.D. S.p.A. in …, priority 2016, dated 2018):
# Columns and labels:
# [1] = system: cardiac arrest and CPR in the pig; assay: Severe model of cardiac arrest and CPR in the pig, 4 hr ventilation after CPR; type: in vivo; parameters: circulating levels of hs-cTnT (median): unit not given here
# Procedure: In a severe model of cardiac arrest and CPR in the pig, treatment with inhaled argon allowed for concurrent cardiac and cerebral protection. After 12 min of untreated cardiac arrest and 5 min of CPR, animals were subjected to 4 hr ventilation with (a) 70% argon - 30% 02 or (b) 70% N2 - 30% 02.
# [2] = system: cardiac arrest and CPR in the rat; assay: Model of cardiac arrest and CPR in the rat, argon ventilation started during CPR; type: in vivo
# Procedure: In a model of cardiac arrest and CPR in the rat, treatment with inhaled argon was initiated early, concurrently with chest compression prior to resuscitation. After 7 min of untreated cardiac arrest, 5 min of CPR were initiated and animals were subjected to ventilation with (a) 70% argon - 30% 02 or (b) 70% N2 - 30% 02. The above ventilation strategies were continued up to 2 hrs following resuscitation.
# [3] = system: acute myocardial infarction by LAD occlusion in the rat; assay: Model of acute myocardial infarction by LAD occlusion in the rat; type: in vivo
# Procedure: In a model of acute myocardial infarction by LAD occlusion in the rat, ventilation with argon reduced myocardial injury. More in details, the LAD occlusion was removed after 30 min; 5 min before reperfusion, animals were randomized to 1 hour ventilation with: (1) 70% argon - 30% oxygen; or (2) 70% nitrogen - 30% oxygen. […] Moreover, a reduced inflammatory response in terms of neutrophil infiltration in the argon ventilation group compared to control group was observed (72 cells/mm^2 vs. 92 cells/mm^2).
# [4] = system: left anterior descending coronary artery occlusion (LAD); conditions: rabbits; three 5-min cycles of 70% argon in oxygen prior to 30 min LAD occlusion; in comparison to control ventilation; cited from earlier work
# [5] = system: cardiac arrest, pigs; conditions: cited from earlier work
# [6] = system: rats resuscitated after cardiac arrest; conditions: post resuscitation ventilation with 70% argon, cited from earlier work
# [7] = during the 4 hr of observation, compared to controls
# [8] = argon during CPR and up to 2 hrs after resuscitation, compared to controls
smiles,measurement,setting,value
[Ar] [argon],Cerebral Performance Category,"[1]; 12 min untreated cardiac arrest, 5 min CPR, 4 hr ventilation with 70% argon - 30% 02, control 3.4 ± 1.6",1.7 ± 1.3
same,circulating levels of NSE (median),"[1]; 4 hr ventilation 70% argon - 30% 02, control 21.2 ng/mL, p not significant",8.5 ng/mL
same,circulating levels of hs-cTnT (median),"[1]; 4 hr ventilation 70% argon - 30% 02, control 8015 ng/mL, p < 0.05",1332
same,myocardial infarct size,"[1]; after argon treatment, compared to controls",significantly lower
same,heart rate,[1]; [7],significantly lower
same,mean arterial pressure,[1]; [7],higher
same,stroke volume,[1]; [7],higher
same,recovery of systolic myocardial function,"[1]; evaluated echocardiographically at 96 hr, compared to controls",significantly better recovery
same,resuscitation rate,"[2]; 7 min untreated cardiac arrest, 5 min CPR with 70% argon - 30% 02 ventilation, control 85%",93%
same,post resuscitation coronary perfusion pressure,[2]; [8],higher
same,post resuscitation mean arterial pressure,[2]; [8],higher
same,lactate/pyruvate ratio in the hippocampus,"[2]; cerebral microdialysis, compared to controls",lower
same,left ventricle ejection fraction,[2]; compared to the control ventilation,trend toward better
same,neurological recovery,[2]; compared to those ventilated with nitrogen and oxygen,significantly faster and better
same,troponin T release,"[2]; trend, compared to the control ventilation",lower
same,plasma level of myocardial troponin T,"[3]; 30 min LAD occlusion, 1 hour ventilation 70% argon - 30% oxygen from 5 min before reperfusion, after 6 hours, control 7432 ng/l, p < 0.05",3128 ng/L
same,neutrophil infiltration,"[3]; LAD occlusion, argon ventilation group, control 92 cells/mm^2",72 cells/mm^2
same,reduction of myocardial infarct size,[4],22%
same,neurological recovery,"[5]; 70% argon-30% oxygen after ROSC, in contrast to nitrogen and oxygen",fast and complete
same,post resuscitation increase in plasmatic cardiac troponin T,"[5]; 8 min untreated cardiac arrest, 5 min CPR, 70% argon-30% oxygen after ROSC",three-fold lower
same,brain injury (histopathology),[5]; compared to control,lesser brain injury
same,respiratory exchange or arterial blood gases,[5]; ventilation with argon,did not impair
same,neurological deficit score,[6]; at all time points,significant improvements
same,neuronal injury (histology),[6],significant reduction
